# Where two headings read alike, the source gives them in different places.
# Biological target: T1, human PAH with the R408W mutation (Homo sapiens, UniProt P00439, R408W)
# T1 construct: expressed in transfected cells
# T1 sequence (P00439 1-452 R408W): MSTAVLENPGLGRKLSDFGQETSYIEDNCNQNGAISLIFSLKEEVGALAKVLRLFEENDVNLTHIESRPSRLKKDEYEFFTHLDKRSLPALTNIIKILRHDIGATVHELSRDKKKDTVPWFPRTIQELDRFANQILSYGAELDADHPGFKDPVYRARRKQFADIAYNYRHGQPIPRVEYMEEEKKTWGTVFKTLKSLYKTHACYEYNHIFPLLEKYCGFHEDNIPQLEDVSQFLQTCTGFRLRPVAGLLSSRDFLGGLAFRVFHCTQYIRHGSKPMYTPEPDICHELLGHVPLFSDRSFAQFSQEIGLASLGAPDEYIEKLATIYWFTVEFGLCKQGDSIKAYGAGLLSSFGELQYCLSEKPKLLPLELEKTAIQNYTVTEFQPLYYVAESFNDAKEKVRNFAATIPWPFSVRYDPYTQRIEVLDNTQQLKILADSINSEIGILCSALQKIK
# Test: Cell Based Phenylalanine Flux Assay
# Set-up: scale not given here
# Conditions: A375 cells expressing human R408W PAH, 24 hrs with compound, 13C-Tyrosine by LC-MS, average where tested multiple times
AC50 (read-out: AC50),AC50,SMILES
> 5 µM,,O=C(CCc1ccc(F)cc1)N1CCc2[nH]cnc2C1c1nc2ccccc2[nH]1 (stereo not drawn) [listing 1 of 2 here]
> 5 µM,,O=C(CCc1cccs1)N1CCc2[nH]cnc2C1c1nc2ccccc2[nH]1 (stereo not drawn) [listing 1 of 2 here]
> 5 µM,,O=C(Cc1noc2ccccc12)N1CCc2[nH]cnc2C1c1nc2ccccc2[nH]1 (stereo not drawn) [listing 1 of 2 here]
> 5 µM,,O=C(CCc1nc2ccccc2o1)N1CCc2[nH]cnc2C1c1nc2ccccc2[nH]1 (stereo not drawn) [listing 1 of 2 here]
> 5 µM,,Cc1nnc(CCC(=O)N2CCc3[nH]cnc3C2c2nc3ccc(Br)cc3[nH]2)s1 (stereo not drawn) [listing 1 of 2 here]
> 5 µM,,O=C(Cc1nc(C(F)(F)F)cs1)N1CCc2[nH]cnc2C1c1nc2ccc(Br)cc2[nH]1 (stereo not drawn) [listing 1 of 2 here]
> 5 µM,,O=C(Cc1nccs1)N1CCc2[nH]cnc2C1c1nc2ccc(Cl)cc2[nH]1 (stereo not drawn) [listing 1 of 2 here]
> 5 µM,,Cc1nnc(CCC(=O)N2CCc3[nH]cnc3C2c2nc3ccc(Cl)cc3[nH]2)s1 (stereo not drawn) [listing 1 of 2 here]
,"E, E",O=C(c1c(C(F)(F)F)nn2ccccc12)N1CCc2[nH]cnc2C1c1nc2ccccc2s1 (stereo not drawn)
,"E, E",NC(=O)c1nc(-c2ccccn2)oc1C(=O)N1CCc2[nH]cnc2C1c1nc2ccccc2s1 (stereo not drawn)
> 5 µM,,Cc1nnc(C(=O)N2CCc3[nH]cnc3C2c2nc3ccccc3[nH]2)s1 (stereo not drawn) [listing 1 of 2 here]
> 5 µM,,O=C(c1nc2ccccc2s1)N1CCc2[nH]cnc2C1c1nc2ccccc2[nH]1 (stereo not drawn) [listing 1 of 2 here]
> 5 µM,,O=C(c1cnn2cc(Cl)ccc12)N1CCc2[nH]cnc2C1c1nc2ccccc2[nH]1 (stereo not drawn) [listing 1 of 2 here]
> 5 µM,,O=C(c1ccc2ncsc2c1)N1CCc2[nH]cnc2C1c1nc2ccccc2[nH]1 (stereo not drawn) [listing 1 of 2 here]
> 5 µM,,O=C(c1ncc[nH]1)N1CCc2[nH]cnc2C1c1nc2ccccc2[nH]1 (stereo not drawn) [listing 1 of 2 here]
> 5 µM,,O=C(c1nncs1)N1CCc2[nH]cnc2C1c1nc2ccccc2[nH]1 (stereo not drawn)
> 5 µM,,O=C(c1cnn2cc(Br)ccc12)N1CCc2[nH]cnc2C1c1nc2ccc(Br)cc2[nH]1 (stereo not drawn) [listing 1 of 2 here]
> 5 µM,,COc1ccn2ncc(C(=O)N3CCc4[nH]cnc4C3c3nc4ccc(Br)cc4[nH]3)c2c1 (stereo not drawn) [listing 1 of 2 here]
> 5 µM,,O=C(c1cncs1)N1CCc2[nH]cnc2C1c1nc2ccc(Cl)cc2[nH]1 (stereo not drawn) [listing 1 of 2 here]
> 5 µM,,O=C(c1nccs1)N1CCc2[nH]cnc2C1c1nc2ccc(F)cc2[nH]1 (stereo not drawn)
1 to 5 µM,,O=C(c1cnn2ccc(Br)cc12)N1CCc2[nH]cnc2C1c1nc2ccc(Cl)cc2[nH]1 (stereo not drawn)
> 5 µM,,O=C(c1cnn2cc(Br)ccc12)N1CCc2[nH]cnc2C1c1nc2ccc(Cl)cc2[nH]1 (stereo not drawn) [listing 1 of 2 here]
> 5 µM,,COc1cccc(C=CC(=O)N2CCc3[nH]cnc3C2c2nc3ccccc3[nH]2)c1 (stereo not drawn) [listing 1 of 2 here]

AC50 (read-out: AC50),AC50,SMILES
> 5 µM,,O=C(c1nc2ccccc2s1)N1CCc2[nH]cnc2C1c1nc2ccc(Cl)cc2[nH]1 (stereo not drawn) [listing 1 of 2 here]
> 5 µM,,O=C(C1CC1)N1CCc2[nH]cnc2C1c1nc2ccc(F)cc2[nH]1 (stereo not drawn) [listing 1 of 2 here]
1 to 5 µM,,COc1cccc(CCC(=O)N2CCc3[nH]cnc3C2c2nc3ccccc3[nH]2)c1 (stereo not drawn)
1 to 5 µM,,O=C(Cc1nccs1)N1CCc2[nH]cnc2C1c1nc2ccccc2[nH]1 (stereo not drawn)
1 to 5 µM,,O=C(CCc1cccs1)N1CCc2[nH]cnc2C1c1nc2ccccc2[nH]1 (stereo not drawn) [listing 2 of 2 here]
> 5 µM,,O=C(CCc1ccncc1)N1CCc2[nH]cnc2C1c1nc2ccccc2[nH]1 (stereo not drawn)
,"E, E",O=C(CCC1CC1)N1CCc2[nH]cnc2C1c1nc2ccccc2[nH]1 (stereo not drawn)
1 to 5 µM,,O=C(CCc1nc2ccccc2o1)N1CCc2[nH]cnc2C1c1nc2ccccc2[nH]1 (stereo not drawn) [listing 2 of 2 here]
1 to 5 µM,,O=C(CCc1ccc(F)cc1)N1CCc2[nH]cnc2C1c1nc2ccccc2[nH]1 (stereo not drawn) [listing 2 of 2 here]
> 5 µM,,Nc1nnc(CCC(=O)N2CCc3[nH]cnc3C2c2nc3ccccc3[nH]2)s1 (stereo not drawn)
> 5 µM,,CC(=O)N1CCc2[nH]cnc2C1c1nc2ccccc2[nH]1 (stereo not drawn)
1 to 5 µM,,Cc1nnc(CCC(=O)N2CCc3[nH]cnc3C2c2nc3ccccc3[nH]2)s1 (stereo not drawn)
1 to 5 µM,,O=C(CCc1ccccc1)N1CCc2[nH]cnc2C1c1nc2ccccc2[nH]1 (stereo not drawn)
1 to 5 µM,,O=C(Cc1noc2ccccc12)N1CCc2[nH]cnc2C1c1nc2ccccc2[nH]1 (stereo not drawn) [listing 2 of 2 here]
,"E, E",Cn1cc(C(C)(C)C(=O)N2CCc3[nH]cnc3C2c2nc3ccccc3s2)cn1 (stereo not drawn)
1 to 5 µM,,O=C(Cc1nccs1)N1CCc2[nH]cnc2C1c1nc2ccc(Br)cc2[nH]1 (stereo not drawn)
1 to 5 µM,,Cc1nnc(CCC(=O)N2CCc3[nH]cnc3C2c2nc3ccc(Br)cc3[nH]2)s1 (stereo not drawn) [listing 2 of 2 here]
1 to 5 µM,,O=C(Cc1nc(C(F)(F)F)cs1)N1CCc2[nH]cnc2C1c1nc2ccc(Br)cc2[nH]1 (stereo not drawn) [listing 2 of 2 here]
1 to 5 µM,,O=C(Cc1nc(C(F)(F)F)cs1)N1CCc2[nH]cnc2C1c1nc2ccc(Cl)cc2[nH]1 (stereo not drawn)
1 to 5 µM,,CC(C)(C)CCC(=O)N1CCc2[nH]cnc2C1c1nc2ccc(Cl)cc2[nH]1 (stereo not drawn)
1 to 5 µM,,Cc1nnc(CCC(=O)N2CCc3[nH]cnc3C2c2nc3ccc(Cl)cc3[nH]2)s1 (stereo not drawn) [listing 2 of 2 here]
1 to 5 µM,,O=C(Cc1nccs1)N1CCc2[nH]cnc2C1c1nc2ccc(Cl)cc2[nH]1 (stereo not drawn) [listing 2 of 2 here]
1 to 5 µM,,O=C(CCc1nccs1)N1CCc2[nH]cnc2C1c1nc2ccc(F)cc2[nH]1 (stereo not drawn)

AC50 (read-out: AC50),AC50,SMILES
1 to 5 µM,,O=C(CCc1nccs1)N1CCc2nc[nH]c2C1c1nc2cccc(Cl)c2[nH]1 (stereo not drawn)
1 to 5 µM,,c1ccc2[nH]c(C3c4nc[nH]c4CCN3CCCc3nccs3)nc2c1 (stereo not drawn)
,"E, E",NC(=O)Cn1cc(C(=O)N2CCc3[nH]cnc3C2c2nc3c(F)cccc3s2)c(Cl)n1 (stereo not drawn)
,"E, E",Fc1ccc2nc(N3CCc4[nH]cnc4C3c3nc4ccccc4s3)oc2c1 (stereo not drawn)
,"E, E",COCCc1ccc2c(C(=O)N3CCc4[nH]cnc4C3c3nc4ccccc4s3)c(C(F)F)nn2c1 (stereo not drawn)
,"E, E",O=C(c1c(C(F)(F)F)nn2c1CCCC2)N1CCc2[nH]cnc2C1c1nc2ccccc2s1 (stereo not drawn)
,"E, E",Cc1nc(C(F)(F)F)c(C(=O)N2CCc3nc[nH]c3C2c2nc3ccccc3s2)o1 (stereo not drawn)
,"E, E",COCCc1ccc2c(C(=O)N3CCc4[nH]cnc4C3c3nc4ccccc4s3)c(C(F)(F)F)nn2c1 (stereo not drawn)
,"E, E",NC(=O)N1CC(C(=O)N2CCc3[nH]cnc3C2c2nc3ccccc3s2)C1 (stereo not drawn)
,"E, E",CN(C)CCc1nc(C#N)c(C(=O)N2CCc3[nH]cnc3C2c2nc3ccccc3s2)o1 (stereo not drawn)
,"E, E",CN1CCN(c2nc(C#N)c(C(=O)N3CCc4[nH]cnc4C3c3nc4ccccc4s3)o2)CC1 (stereo not drawn)
,"E, E",O=C(c1nnc(CCCNC2CC2)o1)N1CCc2[nH]cnc2C1c1nc2ccccc2s1 (stereo not drawn)
> 5 µM,,O=C(c1cnc[nH]1)N1CCc2[nH]cnc2C1c1nc2ccccc2[nH]1 (stereo not drawn)
> 5 µM,,O=C(c1cn[nH]c1)N1CCc2[nH]cnc2C1c1nc2ccccc2[nH]1 (stereo not drawn)
1 to 5 µM,,O=C(c1nc2ccccc2s1)N1CCc2[nH]cnc2C1c1nc2ccccc2[nH]1 (stereo not drawn) [listing 2 of 2 here]
1 to 5 µM,,Cc1nnc(C(=O)N2CCc3[nH]cnc3C2c2nc3ccccc3[nH]2)s1 (stereo not drawn) [listing 2 of 2 here]
> 5 µM,,O=C(c1nc2ccncc2s1)N1CCc2[nH]cnc2C1c1nc2ccccc2[nH]1 (stereo not drawn)
1 to 5 µM,,O=C(c1cc[nH]n1)N1CCc2[nH]cnc2C1c1nc2ccccc2[nH]1 (stereo not drawn)
> 5 µM,,O=C(c1ncn2ccccc12)N1CCc2[nH]cnc2C1c1nc2ccccc2[nH]1 (stereo not drawn)
1 to 5 µM,,O=C(c1ccc2ncsc2c1)N1CCc2[nH]cnc2C1c1nc2ccccc2[nH]1 (stereo not drawn) [listing 2 of 2 here]
1 to 5 µM,,O=C(c1ncc[nH]1)N1CCc2[nH]cnc2C1c1nc2ccccc2[nH]1 (stereo not drawn) [listing 2 of 2 here]
1 to 5 µM,,O=C(c1ccc(F)cc1)N1CCc2[nH]cnc2C1c1nc2ccccc2[nH]1 (stereo not drawn)
1 to 5 µM,,O=C(c1cnn2cc(Cl)ccc12)N1CCc2[nH]cnc2C1c1nc2ccccc2[nH]1 (stereo not drawn) [listing 2 of 2 here]

AC50 (read-out: AC50),AC50,SMILES
,"E, E",O=C(c1ocnc1C(F)F)N1CCc2[nH]cnc2C1c1nc2ccccc2[nH]1 (stereo not drawn)
,"E, E",CC(C)(O)c1nc(C(F)F)c(C(=O)N2CCc3[nH]cnc3C2c2nc3ccccc3[nH]2)o1 (stereo not drawn)
1 to 5 µM,,COc1ccn2ncc(C(=O)N3CCc4[nH]cnc4C3c3nc4ccc(Br)cc4[nH]3)c2c1 (stereo not drawn) [listing 2 of 2 here]
1 to 5 µM,,O=C(c1cnn2cc(Br)ccc12)N1CCc2[nH]cnc2C1c1nc2ccc(Br)cc2[nH]1 (stereo not drawn) [listing 2 of 2 here]
> 5 µM,,O=C(c1cnn2cccc(F)c12)N1CCc2[nH]cnc2C1c1nc2ccc(Cl)cc2[nH]1 (stereo not drawn)
1 to 5 µM,,O=C(c1nccs1)N1CCc2[nH]cnc2C1c1nc2ccc(Cl)cc2[nH]1 (stereo not drawn)
1 to 5 µM,,O=C(c1cncs1)N1CCc2[nH]cnc2C1c1nc2ccc(Cl)cc2[nH]1 (stereo not drawn) [listing 2 of 2 here]
> 5 µM,,O=C(c1ncc(Cl)s1)N1CCc2[nH]cnc2C1c1nc2ccc(Cl)cc2[nH]1 (stereo not drawn)
> 5 µM,,O=C(c1ncn2ccccc12)N1CCc2[nH]cnc2C1c1nc2ccc(Cl)cc2[nH]1 (stereo not drawn)
,"E, E",O=C(c1oc(-c2ccccn2)nc1C(F)(F)F)N1CCc2[nH]cnc2C1c1nc2ccccc2s1 (stereo not drawn)
,"E, E",CC(C)(O)CCc1nc(C(F)(F)F)c(C(=O)N2CCc3[nH]cnc3C2c2nc3ccccc3s2)o1 (stereo not drawn)
,"E, E",O=C(c1c(C(F)F)nn2cc(Br)ccc12)N1CCc2[nH]cnc2C1c1nc2ccccc2s1 (stereo not drawn)
,"E, E",CN(C)Cc1nc(C(F)(F)F)c(C(=O)N2CCc3[nH]cnc3C2c2nc3ccccc3s2)o1 (stereo not drawn)
,"E, E",Cn1cc(-c2nc(C(F)(F)F)c(C(=O)N3CCc4[nH]cnc4C3c3nc4ccccc4s3)o2)cn1 (stereo not drawn)
,"E, E",COCc1ccc2c(C(=O)N3CCc4[nH]cnc4C3c3nc4ccccc4s3)c(C(F)F)nn2c1 (stereo not drawn)
1 to 5 µM,,O=C(c1cnn2cc(Br)ccc12)N1CCc2[nH]cnc2C1c1nc2ccc(Cl)cc2[nH]1 (stereo not drawn) [listing 2 of 2 here]
1 to 5 µM,,O=C(C=Cc1ccccc1)N1CCc2[nH]cnc2C1c1nc2ccccc2[nH]1 (stereo not drawn)
1 to 5 µM,,COc1cccc(C=CC(=O)N2CCc3[nH]cnc3C2c2nc3ccccc3[nH]2)c1 (stereo not drawn) [listing 2 of 2 here]
1 to 5 µM,,O=C(c1nc2ccccc2s1)N1CCc2[nH]cnc2C1c1nc2ccc(Br)cc2[nH]1 (stereo not drawn)
1 to 5 µM,,O=C(c1nc2ccccc2s1)N1CCc2[nH]cnc2C1c1nc2ccc(Cl)cc2[nH]1 (stereo not drawn) [listing 2 of 2 here]
1 to 5 µM,,O=C(C1CC1)N1CCc2[nH]cnc2C1c1nc2ccc(F)cc2[nH]1 (stereo not drawn) [listing 2 of 2 here]
